No end group written: not given here.

IC50 data for 18 molecules are collected here from patent US20140288077A1, “SUBSTITUTED 4-PHENOXYPHENOL ANALOGS AS MODULATORS OF PROLIFERATING CELL NUCLEAR ANTIGEN ACTIVITY” (ST. JUDE CHILDREN'S RESEARCH HOSPITAL, priority 2011, published 2014).

In one assay the target is T1, human PCNA recombinant protein (Homo sapiens, UniProt P12004).
T1 construct: The full length human PCNA; made in house; host or cells: Escherichia coli BL21(DE3)
T1 sequence (P12004 whole entry): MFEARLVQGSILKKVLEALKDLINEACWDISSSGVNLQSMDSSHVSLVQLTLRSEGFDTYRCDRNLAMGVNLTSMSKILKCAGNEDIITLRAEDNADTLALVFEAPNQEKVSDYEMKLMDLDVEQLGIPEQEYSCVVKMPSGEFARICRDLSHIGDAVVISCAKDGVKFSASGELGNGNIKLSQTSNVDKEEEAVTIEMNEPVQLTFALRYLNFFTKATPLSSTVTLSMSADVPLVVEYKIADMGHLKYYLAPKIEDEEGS
The assay is described as follows: Fluorescent polarization assay: competition with 5-FAM-labeled PL peptide for PCNA. As to conditions: Table 2; inhibition of FAM-PL peptide binding to PCNA; read-out: IC50. The format is binding. From the text:
To determine the binding of the disclosed compounds to the human PCNA recombinant protein, a fluorescence polarization assay was employed. The assay is based on competition between a fluorescent tracer and increasing amounts of competing compound, i.e. a disclosed compound, determined as fluorescence polarization intensity (mP). The fluorescent tracer was 5-carboxyfluorescein (5-FAM) labeled PL peptide (“FAM-PL”). […] PCNA was a recombinant protein purified using standard methods known to one skilled in the art using an expression construct obtained from Dr. Toshiki Tsurimoto, Kyusyu University, Japan.
The volumes of PCNA and FAM-PL were adjusted to ensure that the final concentration of PCNA was 200 nM and FAM-PL was 10 nM. Assays were carried out in 384 well plates in a total volume of about 20-30 μL. […] Fluorescence measurements were made immediately after dilution in the assay plate. […] FP values (P) were calculated in millipolarization units (mP),
where I∥ and I⊥ are the emission intensities recorded, respectively, in the parallel and perpendicular directions relative to the plane of excitation polarization, after background intensity correction. G-factor values (G) for the fluorescein spectral window were measured using 1 nM fluorescein.
Alternatively, the fluorescent polarization assay can be carried out as described in the following. […] Briefly, 20 μl of the assay solution was transferred into each well of a black 384-well plate using Wellmate (Matrix). […] The negative control in each plate was DMSO, whereas the positive control was unlabeled PL-peptide as a self-competitor. […] FP values were calculated in millipolarization units. All data processing was performed using in-house programs in the Pipeline Pilot (Accelrys, version 7.0.1). The quality of the primary screen was assessed by Z-prime and other screening quality metrics.
Take `CS(=O)(=O)NC(=O)CCc1cc(I)c(Oc2ccc(O)c(C(=O)NCc3ccccc3)c2)c(I)c1` [MLAF-013, N-Benzyl-5-(2,6-diiodo-4-(3-(methylsulfonamido)-3-oxopropyl)phenoxy)-2-hydroxybenzamide]: the IC50 (in general, the concentration needed to halve the response being measured) worked out at 1.4 µM. As to `CCCCCNC(=O)Cc1cc(I)c(Oc2ccc(O)c(I)c2)c(I)c1` [MLAE-029-9, 2-(4-(4-Hydroxy-3-iodophenoxy)-3,5-diiodophenyl)-N-pentylacetamide], the IC50 is more than 50 µM. With `CCCOCCNC(=O)CCc1cc(I)c(Oc2ccc(O)cc2)c(I)c1` [MLAE-054-3, 3-(4-(4-Hydroxyphenoxy)-3,5-diiodophenyl)-N-(2-propoxyethyl)propanamide], the IC50 came out at 8.3 µM.

In the case of `COc1ccc(NC(=O)Cc2cc(I)c(Oc3ccc(O)c(I)c3)c(I)c2)cc1` [MLAE-029-7, 2-(4-(4-Hydroxy-3-iodophenoxy)-3,5-diiodophenyl)-N-(4-methoxyphenyl)acetamide], the IC50 was more than 50 µM. For the molecule `NC[C@@H](N)Cc1cc(I)c(Oc2ccc(O)cc2)c(I)c1` [SWUA_017, (S)-4-(4-(2,3-diaminopropyl)-2,6-diiodophenoxy)phenol], the half-maximal inhibitory concentration (IC50) turned out to be 2.5 µM. On the same count and under the same terms, the figure for `N[C@H](CO)Cc1cc(I)c(Oc2ccc(O)c(I)c2)c(I)c1` [MLAG-083, (S)-4-(4-(2-amino-3-hydroxypropyl)-2,6-diiodophenoxy)-2-iodophenol] is 0.6 µM. The same measure, in the same setting: for `Cc1noc(C)c1S(=O)(=O)N[C@H](CO)Cc1cc(I)c(Oc2ccc(O)cc2)c(I)c1` [MLAE-061, (S)—N-(1-Hydroxy-3-(4-(4-hydroxyphenoxy)-3,5-diiodophenyl)propan-2-yl)-3,5-dimethylisoxazole-4-sulfonamide] the value was 16 µM; for `O=C(Cc1cc(I)c(Oc2ccc(O)c(I)c2)c(I)c1)NCCc1ccccc1` [MLAE-029-3, 2-(4-(4-hydroxy-3-iodophenoxy)-3,5-diiodophenyl)-N-phenethylacetamide], more than 50 µM; for `O=C1CN(C(=O)CCc2cc(I)c(Oc3ccc(O)cc3)c(I)c2)CCN1` [MLAE-034, 4-(3-(4-(4-hydroxyphenoxy)-3,5-diiodophenyl)propanoyl)piperazin-2-one], more than 50 µM. For the molecule `NCc1cc(I)c(Oc2ccc(O)cc2)c(I)c1` [MLAG-082, 4-(4-(aminomethyl)-2,6-diiodophenoxy)phenol], the IC50 was determined as 1.6 µM.

With `COc1ccc(Oc2c(I)cc(CCC(=O)N3CCCCC3)cc2I)cc1` [MLAE-039, 3-(3,5-Diiodo-4-(4-methoxyphenoxy)phenyl)-1-(piperidin-1-yl)propan-1-one], the IC50 amounted to 9.5 µM.

As to `CS(=O)(=O)NC(=O)Cc1cc(I)c(Oc2ccc(O)cc2)c(I)c1` [MLAE-049, 2-(4-(4-Hydroxyphenoxy)-3,5-diiodophenyl)-N-(methylsulfonyl)acetamide], the IC50 turned out to be 9.1 µM.

On to `COCCNC(=O)CCc1cc(I)c(Oc2ccc(O)cc2)c(I)c1` [MLAE-051-1, 3-(4-(4-Hydroxyphenoxy)-3,5-diiodophenyl)-N-(2-methoxyethyl)propanamide], for which the IC50 is 4.9 µM. Take `O=C1CN(C(=O)Cc2cc(I)c(Oc3ccc(O)cc3)c(I)c2)CCN1` [MLAE-048, 4-(2-(4-(4-Hydroxyphenoxy)-3,5-diiodophenyl)acetyl)piperazin-2-one]: the IC50 is 9.1 µM. On the same count and under the same terms, the figure for `CCNC(=O)Cc1cc(I)c(Oc2ccc(O)cc2)c(I)c1` [MLAG-066-3, N-ethyl-2-(4-(4-hydroxyphenoxy)-3,5-diiodophenyl)acetamide] is 6.6 µM. Regarding `O=C(CCc1cc(I)c(Oc2ccc(O)c(C(=O)Nc3ccccc3)c2)c(I)c1)NCCO` [MLAF-007, 2-Hydroxy-5-(4-(3-((2-hydroxyethyl)amino)-3-oxopropyl)-2,6-diiodophenoxy)-N-phenylbenzamide], the IC50 worked out at 0.4 µM.

In the case of `NC(=O)Cc1cc(I)c(Oc2ccc(O)c(I)c2)c(I)c1` [MLAG-088, 2-(4-(4-Hydroxy-3-Iodophenoxy)-3,5-diiodophenyl)acetamide], the IC50 was found to be 6.6 µM.

The same assay, now with this note: unlabeled PL-peptide against tagged PL-peptide; data not shown; read-out: IC50 in self-competition.
In the case of “SAVLQKKITDYFHPKK [PL peptide, reference compound]”, the IC50 is approximately 0.1 µM.
